# From patent publication US7524823B2, “Macrolides” (Basilea Pharmaceutica AG, priority 2005, dated 2009)
# Read-outs that look alike come from different tables or passages of the source.
# Assays:
# Assay type in all cases: cell-based
# [1] = tested on: Propionibacterium acnes SW101T; experiment: MIC by anaerobic broth microdilution (WCB, NCCLS); details: code K: Propionibacterium acnes SW101T, 35-37° C., 48 h
# Protocol: (§1) MIC values towards strains of propionibacteria were obtained by broth microdilution using WCB (Anaerobe Broth MIC, Difco) according to NCCLS guidelines (National Committee for Clinical Laboratory Standards. Methods for anti-microbial susceptibility testing of anaerobic bacteria, 5th ed.; approved standard. NCCLS publication no. M11-A5. NCCLS, Wayne, Pa., 2001). Microtitre plates were loaded into 7-L GENbox anaerobic incubation jars (BioMérieux, cat. no. 96 128) fitted with anaerobic atmosphere generators (BioMérieux, cat. no. 96 124) and a Dry Anaerobic Indicator Strip (BBL, cat. no. 271051). Under these conditions, an O2 concentration <0.1% was achieved by 2.5 h, and a CO2 concentration >15% by 24 h. MIC values were read after incubation at 35-37° C. for 48 h (Table 3).
# [2] = tested on: Propionibacterium acnes EG7NS; experiment: MIC by anaerobic broth microdilution (WCB, NCCLS); details: code I: Propionibacterium acnes EG7NS, anaerobic, 35-37° C., 48 h
# Protocol: as §1
# [3] = tested on: Streptococcus pneumoniae 1/1; experiment: MIC by broth microdilution (CAMHB + 5% horse serum, NCCLS); details: code D: Streptococcus pneumoniae 1/1
# Protocol: (§2) MIC values for non-anaerobes were obtained by broth microdilution using CAMHB (BBL) according to NCCLS guidelines (National Committee for Clinical Laboratory Standards. Methods for dilution antimicrobial susceptibility tests for bacteria that grow aerobically, 5th ed. Approved standard M7-A6. NCCLS, Wayne, Pa., 2003). Drugs were dissolved in DMSO prior to dispensing into 96-well microtitre plates; the concentration of DMSO in assay wells never exceeded 2% (v/v). CAMHB was supplemented with 5% (v/v) horse serum (Sigma, cat. no. H-1270) in lieu of laked horse blood for cultivation of Streptococcus pneumoniae, and with 5% (v/v) Fildes enrichment (BBL, cat. no. 220810) supernate in lieu of Haemophilus Test Medium and additives for cultivation of Haemophilus influenzae (Pankuch G A, Hoellman D B, Lin G, Bajaksouzian S, Jacobs M R, Appelbaum P C. Activity of HMR 3647 compared to those of five agents against Haemophilus influenzae and Moraxella catarrhalis by MIC determination and time-kill assay. Antimicrob. Agents Chemother. November 1998; 42(11): 3032-4). Activities expressed as the minimal inhibitory concentrations (MICs) (μg/ml) are given in the following Table 3, and the microorganisms used for testing are listed in Table 2 below.
# [4] = tested on: Streptococcus pneumoniae Tupelo; experiment: as above; details: code F: Streptococcus pneumoniae Tupelo
# Protocol: as §2
# [5] = tested on: Streptococcus pneumoniae SL199T; experiment: as above; details: code E: Streptococcus pneumoniae SL199T
# Protocol: as §2
# [6] = tested on: Staphylococcus aureus ATCC 29213; experiment: MIC by broth microdilution (CAMHB, NCCLS); details: code A: Staphylococcus aureus ATCC 29213
# Protocol: as §2
# [7] = tested on: Escherichia coli ATCC 25922; experiment: MIC by broth microdilution (CAMHB, NCCLS); details: code C: Escherichia coli ATCC 25922
# Protocol: as §2
# [8] = tested on: Staphylococcus aureus 1086; experiment: MIC by broth microdilution (CAMHB, NCCLS); details: code B: Staphylococcus aureus 1086
# Protocol: as §2
# [9] = tested on: Haemophilus influenzae QK50; experiment: MIC by broth microdilution (CAMHB + 5% Fildes enrichment, NCCLS); details: code H: Haemophilus influenzae QK50
# Protocol: as §2
# [10] = tested on: Haemophilus influenzae 12214; experiment: as above; details: code G: Haemophilus influenzae 12214
# Protocol: as §2
# [11] = Cutibacterium acnes, read-out: MIC
SMILES,MIC [1] [µg/mL],MIC [2],MIC [3],MIC [4] [µg/mL],MIC [5] [µg/mL],MIC [6] [µg/mL],MIC [7],MIC [8],MIC [9] [µg/mL],MIC [10] [µg/mL],"MIC [1, 11] [µg/mL]","MIC [2, 11] [µg/mL]"
"CCC[C@@H]1C[C@@H](C(=O)N[C@@H]([C@H]2O[C@H](SC)[C@H](O)[C@@H](O)[C@H]2O)[C@H](C)Cl)N(C)C1 [Clindamycin, reference compound]",,,,,,,,,,,> 32,≤ 0.06
CC[C@H]1OC(=O)[C@H](C)[C@@H](O[C@H]2C[C@@](C)(OC)[C@@H](O)[C@H](C)O2)[C@H](C)[C@@H](O[C@@H]2O[C@H](C)C[C@H](N(C)C)[C@H]2O)[C@](C)(OC)C[C@@H](C)C(=O)[C@H](C)[C@H]2[C@H](SCCCN3C(=O)c4cccnc4C3=O)C(=O)O[C@@]21C [Example 5],16,<=0.06 μg/ml,<=0.06 μg/ml,16,8,2,>32 µg/mL,>32 µg/mL,8,8,,
CC[C@H]1OC(=O)[C@H](C)[C@@H](O[C@H]2C[C@@](C)(OC)[C@@H](O)[C@H](C)O2)[C@H](C)[C@@H](O[C@@H]2O[C@H](C)C[C@H](N(C)C)[C@H]2O)[C@](C)(OC)C[C@@H](C)C(=O)[C@H](C)[C@H]2[C@H](S(=O)(=O)CCn3cnc4c(N)ncnc43)C(=O)O[C@@]21C [Example 7],8,2 µg/mL,2 µg/mL,16,4,32,>32 µg/mL,>32 µg/mL,>32,>32,,
CC[C@H]1OC(=O)[C@H](C)[C@@H](O[C@H]2C[C@@](C)(OC)[C@@H](O)[C@H](C)O2)[C@H](C)[C@@H](O[C@@H]2O[C@H](C)C[C@H](N(C)C)[C@H]2O)[C@](C)(OC)C[C@@H](C)C(=O)[C@H](C)[C@H]2[C@H](SCCNc3ncnc4[nH]cnc34)C(=O)O[C@@]21C [Example 9],4,0.125 µg/mL,<=0.06 μg/ml,1,0.25,4,>32 µg/mL,>32 µg/mL,2,2,,
CC[C@H]1OC(=O)[C@H](C)[C@@H](O[C@H]2C[C@@](C)(OC)[C@@H](O)[C@H](C)O2)[C@H](C)[C@@H](O[C@@H]2O[C@H](C)C[C@H](N(C)C)[C@H]2O)[C@](C)(OC)C[C@@H](C)C(=O)[C@H](C)[C@H]2[C@H](SCCCN3C(=O)c4ccccc4C3=O)C(=O)O[C@@]21C [Example 15],16,<=0.06 μg/ml,<=0.06 μg/ml,2,1,1,>32 µg/mL,>=32 μg/ml,4,4,,
"CN(C)[C@@H]1C(O)=C(C(N)=O)C(=O)[C@@]2(O)C(O)=C3C(=O)c4c(O)cccc4[C@@](C)(O)[C@H]3C[C@@H]12 [Tetracycline, reference compound]",,,,,,,,,,,32,≤ 0.06

# The next lines start with results.
MIC [1] [µg/mL],MIC [2],MIC [3],MIC [4] [µg/mL],MIC [5] [µg/mL],MIC [6] [µg/mL],MIC [7],MIC [8],MIC [9] [µg/mL],MIC [10] [µg/mL],SMILES,"MIC [1, 11] [µg/mL]","MIC [2, 11] [µg/mL]"
16,<=0.06 μg/ml,<=0.06 μg/ml,0.5,0.5,2,>32 µg/mL,8 µg/mL,8,4,CC[C@H]1OC(=O)[C@H](C)[C@@H](O[C@H]2C[C@@](C)(OC)[C@@H](O)[C@H](C)O2)[C@H](C)[C@@H](O[C@@H]2O[C@H](C)C[C@H](N(C)C)[C@H]2O)[C@](C)(OC)C[C@@H](C)C(=O)[C@H](C)[C@H]2[C@H](SCCOCn3cnc4cccnc43)C(=O)O[C@@]21C [Example 2],,
16,0.25 µg/mL,0.25 µg/mL,8,2,4,>32 µg/mL,8 µg/mL,16,>32,CC[C@H]1OC(=O)[C@H](C)[C@@H](O[C@H]2C[C@@](C)(OC)[C@@H](O)[C@H](C)O2)[C@H](C)[C@@H](O[C@@H]2O[C@H](C)C[C@H](N(C)C)[C@H]2O)[C@](C)(OC)C[C@@H](C)C(=O)[C@H](C)[C@H]2[C@H](SCCCc3ccc4ncccc4c3)C(=O)O[C@@]21C [Example 3],,
>32,<=0.06 μg/ml,<=0.06 μg/ml,2,1,0.5,>=32 μg/ml,>32 µg/mL,2,2,CC[C@H]1OC(=O)[C@H](C)[C@@H](O[C@H]2C[C@@](C)(OC)[C@@H](O)[C@H](C)O2)[C@H](C)[C@@H](O[C@@H]2O[C@H](C)C[C@H](N(C)C)[C@H]2O)[C@](C)(OC)C[C@@H](C)C(=O)[C@H](C)[C@H]2[C@H](SCC(=O)NCc3ccccn3)C(=O)O[C@@]21C [Example 6],,
8,<=0.06 μg/ml,<=0.06 μg/ml,1,0.5,2,>32 µg/mL,8 µg/mL,8,4,CC[C@H]1OC(=O)[C@H](C)[C@@H](O[C@H]2C[C@@](C)(OC)[C@@H](O)[C@H](C)O2)[C@H](C)[C@@H](O[C@@H]2O[C@H](C)C[C@H](N(C)C)[C@H]2O)[C@](C)(OC)C[C@@H](C)C(=O)[C@H](C)[C@H]2[C@H](SCCCn3cnc4cccnc43)C(=O)O[C@@]21C [Example 12],,
2,<=0.06 μg/ml,<=0.06 μg/ml,0.25,0.125,2,>=32 μg/ml,16 µg/mL,4,4,CC[C@H]1OC(=O)[C@H](C)[C@@H](O[C@H]2C[C@@](C)(OC)[C@@H](O)[C@H](C)O2)[C@H](C)[C@@H](O[C@@H]2O[C@H](C)C[C@H](N(C)C)[C@H]2O)[C@](C)(OC)C[C@@H](C)C(=O)[C@H](C)[C@H]2[C@H](SCCn3ncc4c(N)ncnc43)C(=O)O[C@@]21C [Example 13],,
16,<=0.06 μg/ml,<=0.06 μg/ml,1,0.5,2,>32 µg/mL,16 µg/mL,8,8,CC[C@H]1OC(=O)[C@H](C)[C@@H](O[C@H]2C[C@@](C)(OC)[C@@H](O)[C@H](C)O2)[C@H](C)[C@@H](O[C@@H]2O[C@H](C)C[C@H](N(C)C)[C@H]2O)[C@](C)(OC)C[C@@H](C)C(=O)[C@H](C)[C@H]2[C@H](SCCN(C)CCn3cnc4c(N)ncnc43)C(=O)O[C@@]21C [Example 14],,
1,0.125 µg/mL,<=0.06 μg/ml,0.5,0.125,1,>=32 μg/ml,>32 µg/mL,2,2,CC[C@H]1OC(=O)[C@H](C)[C@@H](O[C@H]2C[C@@](C)(OC)[C@@H](O)[C@H](C)O2)[C@H](C)[C@@H](O[C@@H]2O[C@H](C)C[C@H](N(C)C)[C@H]2O)[C@](C)(OC)C[C@@H](C)C(=O)[C@H](C)[C@H]2[C@H](SCCCn3cnc4c(N)ncnc43)C(=O)O[C@@]21C [Example 16],,
